From US4138554A, “7-[D-α-(4-Hydroxy-1,5-naphthyridine-3-carboxamido)-α-phenyl (and p-hydroxyphenyl)acetamido]-3-carbamoyloxymethyl-3-cephem-4-carboxylic acids” (priority 1977, dated 1979)
≈ marks a conversion by molar mass, not a printed value. Read-outs that look alike come from different tables or passages of the source.

Tests used:
Format in all cases: cell-based
[1] = tested on: S. aureus; assay: MIC by serial two-fold agar dilution (Mueller-Hinton agar), S. aureus; settings: Staphylococcus aureus
Description: (§1) Minimum inhibitory concentrations (MIC) of BB-S520 were determined by serial two-fold agar dilution method using Steers' apparatus on Meuller-Hinton agar plate against 31 test organisms for the primary screening and also against 61 strains of Pseudomonas aeruginosa for the secondary evaluation. The results are shown in Table 1 and Table 2 along with those of BB-S514 and sulbenicillin.
(§2) Minimum inhibitory concentrations (MIC) of cephalosporins in the present study were determined by serial two-fold agar dilution method using Steers' apparatus on Mueller-Hinton agar plate against 31 test organisms for the primary screening and also against 61 strains of Pseudomonas aeruginosa for the secondary evaluation.

[2] = tested on: E. coli; assay: MIC by serial two-fold agar dilution (Mueller-Hinton agar), E. coli; settings: Escherichia coli
Description: as §1, §2

[3] = tested on: K. pneumoniae; assay: MIC by serial two-fold agar dilution (Mueller-Hinton agar), K. pneumoniae; settings: Klebsiella pneumoniae
Description: as §1, §2

[4] = tested on: Klebsiella sp.; assay: MIC by serial two-fold agar dilution (Mueller-Hinton agar), Klebsiella sp.
Description: as §1, §2

[5] = tested on: P. vulgaris; assay: MIC by serial two-fold agar dilution (Mueller-Hinton agar), P. vulgaris
Description: as §1, §2

[6] = tested on: P. aeruginosa; assay: MIC by serial two-fold agar dilution (Mueller-Hinton agar), P. aeruginosa, primary screening
Description: as §1, §2

[7] = tested on: Pseudomonas aeruginosa; assay: MIC by agar dilution against 61 strains of Pseudomonas aeruginosa, secondary evaluation
Description: as §1, §2

Molecule `CC1(C)S[C@@H]2[C@H](NC(=O)C(c3ccccc3)S(=O)(=O)O)C(=O)N2[C@H]1C(=O)O` (stereo partly drawn) [Sulbenicillin, sulbenicillin] has an MIC ([1]; S. aureus BX-1633, Table 1, read-out: MIC) of 3.1 µg/mL (≈ 7.48 µM), an MIC ([1]; S. aureus BX-1633 A9606, Table 6, read-out: MIC) of 3.1 µg/mL (≈ 7.48 µM) and an MIC ([1]; S. aureus Smith (1st line), Table 1, read-out: MIC) of 1.6 µg/mL (≈ 3.86 µM). The MIC ([1]; S. aureus Smith (2nd line), Table 1, read-out: MIC) was 6.3 µg/mL (≈ 15.2 µM), the MIC ([1]; S. aureus Smith A9537, Table 6, read-out: MIC) was 3.1 µg/mL (≈ 7.48 µM) and the MIC ([1]; S. aureus Smith A15907, Table 6) was 12.5 µg/mL (≈ 30.2 µM). The MIC ([1]; S. aureus Smith A20239, Table 6, read-out: MIC) was 6.3 µg/mL (≈ 15.2 µM), the MIC ([1]; S. aureus Smith A20240, Table 6, read-out: MIC) was 6.3 µg/mL (≈ 15.2 µM) and the MIC ([1]; S. aureus Smith A20701, Table 6, read-out: MIC) was 50 µg/mL (≈ 121 µM). The MIC ([1]; S. aureus, unnamed strain (4th S. aureus line), Table 1, read-out: MIC) was 25 µg/mL (≈ 60.3 µM), the MIC ([1]; S. aureus, unnamed strain (5th S. aureus line), Table 1, read-out: MIC) was 3.1 µg/mL (≈ 7.48 µM) and the MIC ([1]; S. aureus, unnamed strain (6th S. aureus line), Table 1, read-out: MIC) was 50 µg/mL (≈ 121 µM). It also gave an MIC ([2]; E. coli A9435, Table 6, read-out: MIC) of 12.5 µg/mL (≈ 30.2 µM), an MIC ([2]; E. coli A9844, Table 6, read-out: MIC) of 0.8 µg/mL (≈ 1.93 µM) and an MIC ([2]; E. coli A10664, Table 6, read-out: MIC) of 1.6 µg/mL (≈ 3.86 µM). The MIC ([2]; E. coli A20366, Table 6, read-out: MIC) was greater than 100 µg/mL, the MIC ([2]; E. coli A20520, Table 6, read-out: MIC) was 6.3 µg/mL (≈ 15.2 µM) and the MIC ([2]; E. coli A20732, Table 6, read-out: MIC) was 100 µg/mL (≈ 241 µM). For the same molecule, the MIC ([2]; E. coli A20898, Table 6, read-out: MIC) was greater than 100 µg/mL, the MIC ([2]; E. coli Juhl A15119, Table 6, read-out: MIC) was 3.1 µg/mL (≈ 7.48 µM) and the MIC ([2]; E. coli Juhl, Table 1, read-out: MIC) was 1.6 µg/mL (≈ 3.86 µM). For the same molecule, the MIC ([2]; E. coli NIHJ, Table 1, read-out: MIC) was 0.8 µg/mL (≈ 1.93 µM), the MIC ([2]; E. coli NIHJ, Table 6, read-out: MIC) was 0.8 µg/mL (≈ 1.93 µM) and the MIC ([2]; E. coli, unnamed strain (3rd E. coli line), Table 1) was 0.8 µg/mL (≈ 1.93 µM). It also gave an MIC ([2]; E. coli, unnamed strain (4th E. coli line), Table 1, read-out: MIC) of 1.6 µg/mL (≈ 3.86 µM), an MIC ([2]; E. coli, unnamed strain (5th E. coli line), Table 1, read-out: MIC) greater than 100 µg/mL and an MIC ([2]; E. coli, unnamed strain (6th E. coli line), Table 1, read-out: MIC) of 6.3 µg/mL (≈ 15.2 µM). The MIC ([2]; E. coli, unnamed strain (7th E. coli line), Table 1, read-out: MIC) was greater than 100 µg/mL, the MIC ([2]; E. coli, unnamed strain (8th E. coli line), Table 1, read-out: MIC) was greater than 100 µg/mL and the MIC ([2]; E. coli, unnamed strain (9th E. coli line), Table 1, read-out: MIC) was 6.3 µg/mL (≈ 15.2 µM). For the same molecule, the MIC ([3]; K. pneumoniae A9977, Table 6) was 3.1 µg/mL (≈ 7.48 µM), the MIC ([3]; K. pneumoniae, Table 1) was 6.3 µg/mL (≈ 15.2 µM) and the MIC ([4]; Klebsiella) was 12.5 µg/mL (≈ 30.2 µM). The MIC ([4]; Klebsiella sp. A20452, Table 6) was 12.5 µg/mL (≈ 30.2 µM), the MIC ([5]; P. vulgaris A9539, Table 6) was 3.1 µg/mL (≈ 7.48 µM) and the MIC ([5]; Proteus vulgaris, P. vulgaris, Table 1, read-out: MIC) was 3.1 µg/mL (≈ 7.48 µM). It also gave an MIC ([6]; P. aeruginosa (5th line), Table 1) of 12.5 Mcg./Ml, an MIC ([6]; P. aeruginosa A15150, Table 6) of 12.5 µg/mL (≈ 30.2 µM) and an MIC ([6]; P. aeruginosa A20229, Table 6) of 12.5 µg/mL (≈ 30.2 µM). It also gave an MIC ([6]; Pseudomonas aeruginosa) of 12.5 µg/mL (≈ 30.2 µM), an MIC ([6]; Pseudomonas aeruginosa, P. aeruginosa (2nd line), Table 1, read-out: MIC) of 25 µg/mL (≈ 60.3 µM) and an MIC ([6]; Pseudomonas aeruginosa, P. aeruginosa (3rd line), Table 1, read-out: MIC) of 25 µg/mL (≈ 60.3 µM). The MIC ([6]; Pseudomonas aeruginosa, P. aeruginosa (4th line), Table 1, read-out: MIC) was 100 µg/mL (≈ 241 µM), the MIC ([6]; Pseudomonas aeruginosa, P. aeruginosa (6th line), Table 1, read-out: MIC) was 3.1 µg/mL (≈ 7.48 µM) and the MIC ([6]; Pseudomonas aeruginosa, P. aeruginosa A9843, Table 6, read-out: MIC) was 25 µg/mL (≈ 60.3 µM). It also gave an MIC ([6]; Pseudomonas aeruginosa, P. aeruginosa A9930, Table 6, read-out: MIC) of 25 µg/mL (≈ 60.3 µM), an MIC ([6]; Pseudomonas aeruginosa, P. aeruginosa A20717, Table 6, read-out: MIC) of 100 µg/mL (≈ 241 µM) and an MIC ([7]; BBRI Pa-No. 1, D15, Table 7) of 12.5 µg/mL (≈ 30.2 µM). For the same molecule, the MIC ([7]; BBRI Pa-No. 3, 1449VA, Table 7) was 12.5 µg/mL (≈ 30.2 µM), the MIC ([7]; BBRI Pa-No. 4, H9 D113, Table 7) was 12.5 µg/mL (≈ 30.2 µM) and the MIC ([7]; BBRI Pa-No. 9, Yale, Table 7) was 12.5 µg/mL (≈ 30.2 µM). It also gave an MIC ([7]; BBRI Pa-No. 14, Table 7) of 12.5 µg/mL (≈ 30.2 µM), an MIC ([7]; BBRI Pa-No. 17, H6 D114, Table 2) of 12.5 µg/mL (≈ 30.2 µM) and an MIC ([7]; BBRI Pa-No. 18, H8 D121, Table 2) of 12.5 µg/mL (≈ 30.2 µM). For the same molecule, the MIC ([7]; BBRI Pa-No. 19, Table 2) was 12.5 µg/mL (≈ 30.2 µM), the MIC ([7]; BBRI Pa-No. 25, Table 2) was 12.5 µg/mL (≈ 30.2 µM) and the MIC ([7]; BBRI Pa-No. 26, Ps32, Table 2) was 12.5 µg/mL (≈ 30.2 µM). For the same molecule, the MIC ([7]; BBRI Pa-No. 26, Ps32, Table 7) was 12.5 µg/mL (≈ 30.2 µM), the MIC ([7]; BBRI Pa-No. 31, Table 2) was 12.5 µg/mL (≈ 30.2 µM) and the MIC ([7]; BBRI Pa-No. 34, Table 7) was 12.5 µg/mL (≈ 30.2 µM). The MIC ([7]; BBRI Pa-No. 60, Table 2) was 12.5 µg/mL (≈ 30.2 µM), the MIC ([7]; BBRI Pa-No. 60, Table 7) was 12.5 µg/mL (≈ 30.2 µM) and the MIC ([7]; Pseudomonas aeruginosa) was 12.5 µg/mL (≈ 30.2 µM). It also gave an MIC ([7]; Pseudomonas aeruginosa, 61 strains of Pseudomonas aeruginosa, Table 7, read-out: Geometric Mean of MIC) of 24 µg/mL (≈ 57.9 µM), an MIC ([7]; Pseudomonas aeruginosa, BBRI Pa-No. 1, D15, Table 2, read-out: MIC) of 25 µg/mL (≈ 60.3 µM) and an MIC ([7]; Pseudomonas aeruginosa, BBRI Pa-No. 2, VA, Table 7, read-out: MIC) of 25 µg/mL (≈ 60.3 µM). The MIC ([7]; Pseudomonas aeruginosa, BBRI Pa-No. 3, 1449VA, Table 2, read-out: MIC) was 6.3 µg/mL (≈ 15.2 µM), the MIC ([7]; Pseudomonas aeruginosa, BBRI Pa-No. 4, H9 D113, Table 2, read-out: MIC) was 25 µg/mL (≈ 60.3 µM) and the MIC ([7]; Pseudomonas aeruginosa, BBRI Pa-No. 5, M4865KC, Table 2, read-out: MIC) was 25 µg/mL (≈ 60.3 µM). The MIC ([7]; Pseudomonas aeruginosa, BBRI Pa-No. 5, N4865KC, Table 7, read-out: MIC) was 6.3 µg/mL (≈ 15.2 µM), the MIC ([7]; Pseudomonas aeruginosa, BBRI Pa-No. 6, No. 5, Table 2, read-out: MIC) was greater than 100 µg/mL and the MIC ([7]; Pseudomonas aeruginosa, BBRI Pa-No. 6, No. 5, Table 7, read-out: MIC) was 100 µg/mL (≈ 241 µM). The MIC ([7]; Pseudomonas aeruginosa, BBRI Pa-No. 7, Table 2, read-out: MIC) was 25 µg/mL (≈ 60.3 µM), the MIC ([7]; Pseudomonas aeruginosa, BBRI Pa-No. 7, Table 7, read-out: MIC) was 25 µg/mL (≈ 60.3 µM) and the MIC ([7]; Pseudomonas aeruginosa, BBRI Pa-No. 8, Table 2, read-out: MIC) was 25 µg/mL (≈ 60.3 µM). The MIC ([7]; Pseudomonas aeruginosa, BBRI Pa-No. 8, Table 7, read-out: MIC) was 25 µg/mL (≈ 60.3 µM), the MIC ([7]; Pseudomonas aeruginosa, BBRI Pa-No. 9, Yale, Table 2, read-out: MIC) was 25 µg/mL (≈ 60.3 µM) and the MIC ([7]; Pseudomonas aeruginosa, BBRI Pa-No. 10, Table 2, read-out: MIC) was greater than 100 µg/mL. The MIC ([7]; Pseudomonas aeruginosa, BBRI Pa-No. 10, Table 7, read-out: MIC) was greater than 100 µg/mL, the MIC ([7]; Pseudomonas aeruginosa, BBRI Pa-No. 11, Table 2, read-out: MIC) was 25 µg/mL (≈ 60.3 µM) and the MIC ([7]; Pseudomonas aeruginosa, BBRI Pa-No. 11, Table 7, read-out: MIC) was 25 µg/mL (≈ 60.3 µM). For the same molecule, the MIC ([7]; Pseudomonas aeruginosa, BBRI Pa-No. 12, Table 2, read-out: MIC) was 50 µg/mL (≈ 121 µM), the MIC ([7]; Pseudomonas aeruginosa, BBRI Pa-No. 12, Table 7, read-out: MIC) was 25 µg/mL (≈ 60.3 µM) and the MIC ([7]; Pseudomonas aeruginosa, BBRI Pa-No. 14, Table 2, read-out: MIC) was 25 µg/mL (≈ 60.3 µM). For the same molecule, the MIC ([7]; Pseudomonas aeruginosa, BBRI Pa-No. 15, Table 2, read-out: MIC) was 100 µg/mL (≈ 241 µM), the MIC ([7]; Pseudomonas aeruginosa, BBRI Pa-No. 15, Table 7, read-out: MIC) was 50 µg/mL (≈ 121 µM) and the MIC ([7]; Pseudomonas aeruginosa, BBRI Pa-No. 16, No. 130, Table 2, read-out: MIC) was 6.3 µg/mL (≈ 15.2 µM).
